Data published in ChEMBL document CHEMBL4373704, “Mucosal Vaccination with a Self-Adjuvanted Lipopeptide Is Immunogenic and Protective against Mycobacterium tuberculosis” (J Med Chem, 2019).
Calls of active or inactive are those of the source. The rule behind the calls is not given here.

Columns and labels:
[1] = species: Mus musculus; assay: Induction of antigen-specific immunogenicity in C57BL/6 mouse assessed as induction of pulmonary CD4+ T-lymphocyte responses by measuring lung ESAT6-specific CD8+ T-lymphocytes producing TNFalpha at 10 ug, in measured 3 weeks after the final vaccination by immunostaining and flow cytometry; format: functional, organism-based
[2] = tested on: Mus musculus; assay: Induction of antigen-specific immunogenicity in C57BL/6 mouse assessed as induction of pulmonary CD4+ T-lymphocyte responses by measuring spleen ESAT6-specific CD8+ T-lymphocytes producing IFNgamma at 10 ug, sc measured 3 weeks after the final vaccination by immunostaining and flow cytometry; format: functional, organism-based
[3] = tested on: Mus musculus; assay: Induction of antigen-specific immunogenicity in C57BL/6 mouse assessed as induction of pulmonary CD4+ T-lymphocyte responses by measuring spleen ESAT6-specific CD8+ T-lymphocytes producing TNFalpha at 10 ug, sc measured 3 weeks after the final vaccination by immunostaining and flow cytometry; format: functional, organism-based
[4] = species: Mus musculus; assay: Induction of antigen-specific immunogenicity in C57BL/6 mouse assessed as induction of pulmonary CD4+ T-lymphocyte responses by measuring lung ESAT6-specific CD8+ T-lymphocytes producing IL-17 at 10 ug, in measured 3 weeks after the final vaccination by immunostaining and flow cytometry; format: functional, organism-based
[5] = target: Toll-like receptor 2 (Homo sapiens) (UniProt O60603); assay: Activation of YFP-tagged TLR2 (unknown origin) expressed in HEK293 cells assessed as induction of IL8 secretion at 8 ug/mL incubated for 16 to 18 hrs by ELISA; format: cell-based
Sequence of Toll-like receptor 2 (Homo sapiens) (O60603 whole entry): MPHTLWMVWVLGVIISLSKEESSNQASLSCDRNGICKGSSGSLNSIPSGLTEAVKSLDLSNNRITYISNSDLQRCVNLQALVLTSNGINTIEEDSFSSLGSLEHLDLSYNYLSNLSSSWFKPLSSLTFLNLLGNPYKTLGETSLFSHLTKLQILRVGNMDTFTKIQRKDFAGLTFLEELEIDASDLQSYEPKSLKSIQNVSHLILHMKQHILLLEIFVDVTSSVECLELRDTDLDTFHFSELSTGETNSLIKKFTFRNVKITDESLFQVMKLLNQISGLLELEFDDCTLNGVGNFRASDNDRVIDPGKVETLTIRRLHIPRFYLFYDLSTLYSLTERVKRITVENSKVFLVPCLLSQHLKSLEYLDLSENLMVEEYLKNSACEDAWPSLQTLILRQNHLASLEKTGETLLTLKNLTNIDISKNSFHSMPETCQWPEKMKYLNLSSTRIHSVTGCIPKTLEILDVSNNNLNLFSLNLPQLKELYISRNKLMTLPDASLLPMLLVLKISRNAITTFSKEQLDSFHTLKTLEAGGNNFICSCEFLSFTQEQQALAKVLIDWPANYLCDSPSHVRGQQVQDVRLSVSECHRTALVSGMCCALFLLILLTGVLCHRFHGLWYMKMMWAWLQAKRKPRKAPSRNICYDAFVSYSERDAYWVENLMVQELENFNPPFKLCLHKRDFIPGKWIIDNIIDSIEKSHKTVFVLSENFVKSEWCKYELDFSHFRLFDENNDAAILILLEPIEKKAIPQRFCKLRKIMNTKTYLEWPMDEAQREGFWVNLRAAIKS

[6] = species: Mus musculus; assay: Induction of antigen-specific immunogenicity in C57BL/6 mouse assessed as induction of pulmonary CD4+ T-lymphocyte responses by measuring lung ESAT6-specific CD8+ T-lymphocytes producing IFNgamma at 10 ug, in measured 3 weeks after the final vaccination by immunostaining and flow cytometry; format: functional, organism-based
[7] = species: Mus musculus; assay: Induction of antigen-specific immunogenicity in C57BL/6 mouse assessed as induction of pulmonary CD4+ T-lymphocyte responses by measuring lung ESAT6-specific CD8+ T-lymphocytes producing IL-2 at 10 ug, in measured 3 weeks after the final vaccination by immunostaining and flow cytometry; format: functional, organism-based
[8] = tested on: Mus musculus; assay: Induction of antigen-specific immunogenicity in C57BL/6 mouse assessed as induction of pulmonary CD4+ T-lymphocyte responses by measuring spleen ESAT6-specific CD4+ T-lymphocytes producing IL-17 at 56.8 ug, sc measured 3 weeks after the final vaccination by immunostaining and flow cytometry; format: functional, organism-based
[9] = species: Mus musculus; assay: Induction of antigen-specific immunogenicity in C57BL/6 mouse assessed as induction of pulmonary CD4+ T-lymphocyte responses by measuring spleen ESAT6-specific CD4+ T-lymphocytes producing IFNgamma at 14.2 ug, in measured 3 weeks after the final vaccination by immunostaining and flow cytometry; format: functional, organism-based
[10] = tested on: Mus musculus; assay: Induction of antigen-specific immunogenicity in C57BL/6 mouse assessed as induction of pulmonary CD4+ T-lymphocyte responses by measuring lung ESAT6-specific CD4+ T-lymphocytes producing IL-17 at 56.8 ug, sc measured 3 weeks after the final vaccination by immunostaining and flow cytometry; format: functional, organism-based
[11] = tested on: Mus musculus; assay: Induction of antigen-specific immunogenicity in C57BL/6 mouse assessed as induction of pulmonary CD4+ T-lymphocyte responses by measuring spleen ESAT6-specific CD4+ T-lymphocytes producing TNFalpha at 56.8 ug, sc measured 3 weeks after the final vaccination by immunostaining and flow cytometry; format: functional, organism-based
[12] = species: Mus musculus; assay: Induction of antigen-specific immunogenicity in C57BL/6 mouse assessed as induction of pulmonary CD4+ T-lymphocyte responses by measuring spleen ESAT6-specific CD4+ T-lymphocytes producing IL-2 at 14.2 ug, in measured 3 weeks after the final vaccination by immunostaining and flow cytometry; format: functional, organism-based
[13] = tested on: Mus musculus; assay: Induction of antigen-specific immunogenicity in C57BL/6 mouse assessed as induction of pulmonary CD4+ T-lymphocyte responses by measuring spleen ESAT6-specific CD4+ T-lymphocytes producing IFNgamma at 56.8 ug, sc measured 3 weeks after the final vaccination by immunostaining and flow cytometry; format: functional, organism-based
[14] = tested on: Mus musculus; assay: Induction of antigen-specific immunogenicity in C57BL/6 mouse assessed as induction of pulmonary CD4+ T-lymphocyte responses by measuring lung ESAT6-specific CD4+ T-lymphocytes producing IFNgamma at 56.8 ug, sc measured 3 weeks after the final vaccination by immunostaining and flow cytometry; format: functional, organism-based
[15] = species: Mus musculus; assay: Induction of antigen-specific immunogenicity in C57BL/6 mouse assessed as induction of pulmonary CD4+ T-lymphocyte responses by measuring spleen ESAT6-specific CD4+ T-lymphocytes producing IL-17 at 14.2 ug, in measured 3 weeks after the final vaccination by immunostaining and flow cytometry; format: functional, organism-based
[16] = tested on: Mus musculus; assay: Induction of antigen-specific immunogenicity in C57BL/6 mouse assessed as induction of pulmonary CD4+ T-lymphocyte responses by measuring lung ESAT6-specific CD4+ T-lymphocytes producing TNFalpha at 56.8 ug, sc measured 3 weeks after the final vaccination by immunostaining and flow cytometry; format: functional, organism-based
[17] = tested on: Mus musculus; assay: Induction of antigen-specific immunogenicity in C57BL/6 mouse assessed as induction of pulmonary CD4+ T-lymphocyte responses by measuring spleen ESAT6-specific CD4+ T-lymphocytes producing IL-2 at 56.8 ug, sc measured 3 weeks after the final vaccination by immunostaining and flow cytometry; format: functional, organism-based
[18] = species: Mus musculus; assay: Induction of antigen-specific immunogenicity in C57BL/6 mouse assessed as induction of pulmonary CD4+ T-lymphocyte responses by measuring lung ESAT6-specific CD4+ T-lymphocytes producing TNFalpha at 14.2 ug, in measured 3 weeks after the final vaccination by immunostaining and flow cytometry; format: functional, organism-based
[19] = species: Mus musculus; assay: Induction of antigen-specific immunogenicity in C57BL/6 mouse assessed as induction of pulmonary CD4+ T-lymphocyte responses by measuring lung ESAT6-specific CD4+ T-lymphocytes producing IL-2 at 14.2 ug, in measured 3 weeks after the final vaccination by immunostaining and flow cytometry; format: functional, organism-based
[20] = tested on: Mus musculus; assay: Induction of antigen-specific immunogenicity in C57BL/6 mouse assessed as induction of pulmonary CD4+ T-lymphocyte responses by measuring lung ESAT6-specific CD4+ T-lymphocytes producing IL-2 at 56.8 ug, sc measured 3 weeks after the final vaccination by immunostaining and flow cytometry; format: functional, organism-based
[21] = species: Mus musculus; assay: Induction of antigen-specific immunogenicity in C57BL/6 mouse assessed as induction of pulmonary CD4+ T-lymphocyte responses by measuring lung ESAT6-specific CD4+ T-lymphocytes producing INFNgamma at 14.2 ug, in measured 3 weeks after the final vaccination by immunostaining and flow cytometry; format: functional, organism-based
[22] = target: Toll-like receptor 2 (Homo sapiens) (UniProt O60603); assay: Activation of YFP-tagged TLR2 (unknown origin) expressed in HEK293 cells assessed as induction of IL8 secretion at 33.5 ug/mL incubated for 16 to 18 hrs by ELISA; format: cell-based
[23] = species: Mus musculus; assay: Induction of antigen-specific immunogenicity in C57BL/6 mouse assessed as induction of pulmonary CD4+ T-lymphocyte responses by measuring lung ESAT6-specific CD4+ T-lymphocytes producing IL-17 at 14.2 ug, in measured 3 weeks after the final vaccination by immunostaining and flow cytometry; format: functional, organism-based
[24] = species: Mus musculus; assay: Induction of antigen-specific immunogenicity in C57BL/6 mouse assessed as induction of pulmonary CD4+ T-lymphocyte responses by measuring spleen ESAT6-specific CD4+ T-lymphocytes producing TNFalpha at 14.2 ug, in measured 3 weeks after the final vaccination by immunostaining and flow cytometry; format: functional, organism-based

Compound: H-QIMYNYPAM-OH
- Activity [1]: inactive
- Activity [2]: Active
- Activity [3]: Active
- Activity [4]: inactive
- Activity [5]: inactive
- Activity [6]: inactive
- Activity [7]: inactive

Compound: CCCCCCCCCCCCCCCC(=O)OC[C@H](CSC[C@H](N)C(=O)N[C@@H](CO)C(=O)N[C@@H](CCCCN)C(=O)N[C@@H](CCCCN)C(=O)N[C@@H](CCCCN)C(=O)N[C@@H](CCCCN)C(=O)NCCOCCOCC(=O)N[C@@H](CCSC)C(=O)N[C@H](C(=O)N[C@@H](CCC(=O)O)C(=O)N[C@@H](CCC(N)=O)C(=O)N[C@@H](CCC(N)=O)C(=O)N[C@@H](Cc1c[nH]c2ccccc12)C(=O)N[C@@H](CC(N)=O)C(=O)N[C@@H](Cc1ccccc1)C(=O)N[C@@H](C)C(=O)NCC(=O)N[C@H](C(=O)N[C@@H](CCC(=O)O)C(=O)N[C@@H](C)C(=O)N[C@@H](C)C(=O)N[C@@H](C)C(=O)N[C@@H](CO)C(=O)N[C@@H](C)C(=O)N[C@H](C(=O)N[C@@H](CCC(N)=O)C(=O)NCC(=O)N[C@@H](CCC(N)=O)C(=O)N[C@H](C(=O)N[C@@H](CCSC)C(=O)N[C@@H](Cc1ccc(O)cc1)C(=O)N[C@@H](CC(N)=O)C(=O)N[C@@H](Cc1ccc(O)cc1)C(=O)N1CCC[C@H]1C(=O)N[C@@H](C)C(=O)N[C@@H](CCSC)C(=O)O)[C@@H](C)CC)[C@@H](C)CC)[C@@H](C)CC)[C@@H](C)O)OC(=O)CCCCCCCCCCCCCCC
- Activity [8]: inactive
- Activity [9]: Active
- Activity [10]: inactive
- Activity [11]: Active
- Activity [12]: Active
- Activity [13]: inactive
- Activity [14]: inactive
- Activity [15]: Active
- Activity [16]: inactive
- Activity [17]: Active
- Activity [18]: Active
- Activity [19]: Active
- Activity [20]: inactive
- Activity [21]: Active
- Activity [22]: Active
- Activity [23]: Active
- Activity [24]: Active
